We go through one compound from patent US20240026461A1, “BCL10 MUTATIONS AS BIOMARKERS FOR TARGETED THERAPY IN B CELL LYMPHOMAS” (priority 2022, published 2024).

One assay deals with HBL1^WT. Nature of the assay: Growth inhibition assay (CellTiter Glo), HBL1 cells expressing BCL10 WT. The class given is cell-based. The conditions noted are these: Homo sapiens, 96 h, read-out: IC50, growth inhibition, MALT1 inhibitors. How it is done: (§1) DLBCL cell lines were cultured in exponential condition and the cell growth was determined by CellTiter Glo (Promega). 3000-5000 cells were seeded and cultured in each well of 384 well plate for 96 h and treated with compounds every 48 h. Luminescence was read at the endpoint with the Synergy NEO microplate reader (BioTek). The value of compound treated cells was normalized to their vehicle treated controls and then used to calculate IC50 in GraphPad Prism (RRID:SCR_002798).
(§2) Given the distinct functional profiles, CARD11 dependencies, and MALT1 activation effects of the BCL10 CARD and truncation mutants, the inventors designed experiments to evaluate whether, and to what extent, these mutant BCL10 proteins might confer BTK inhibitor resistance. Isogenic ABC-DLBCL cells expressing BCL10WT, BCL10^R58Q and BCL10^E140X proteins were treated with escalating doses of three chemically distinct covalent BTK inhibitors: ibrutinib, acalabrutinib, or zanubrutinib. The cellular proliferation rates of the treated cells were measured using an ATP fluorescence assay after 96 hours of drug exposure.
(§3) Isogenic BCL10^WT, BCL10^R58Q and BCL10^E140X ABC-DLBCLs were exposed to increasing concentrations of each of these compounds for 96 hours.

For another assay, the system named is HBL1^R58Q. The assay is described as follows: Growth inhibition assay (CellTiter Glo), HBL1 cells expressing BCL10 R58Q. The class given is cell-based. The following applies: Homo sapiens, 96 h, read-out: IC50, growth inhibition, MALT1 inhibitors. The method, then: as §1, §2, §3
The test system of another assay is HBL1^E140X. Nature of the assay: Growth inhibition assay (CellTiter Glo), HBL1 cells expressing BCL10 E140X. The class given is cell-based. The following applies: Homo sapiens, 96 h, read-out: IC50, growth inhibition, MALT1 inhibitors. The method, then:
as §1, §2, §3

The subject of another assay is OCI-LY10^WT. Nature of the assay: Growth inhibition assay (CellTiter Glo), OCI-Ly10 cells expressing BCL10 WT. The conditions noted are these: Homo sapiens, 96 h, read-out: IC50, growth inhibition, MALT1 inhibitors. The class given is cell-based. The method, then: as §1, §2, §3
Another assay has as its system OCI-LY10^R58Q. Nature of the assay: Growth inhibition assay (CellTiter Glo), OCI-Ly10 cells expressing BCL10 R58Q. Type of assay: cell-based. The following applies: Homo sapiens, 96 h, read-out: IC50, growth inhibition, MALT1 inhibitors. The method, then:
as §1, §2, §3

In another assay the test system is OCI-LY10^E140X. Nature of the assay: Growth inhibition assay (CellTiter Glo), OCI-Ly10 cells expressing BCL10 E140X. The class given is cell-based. The following applies: Homo sapiens, 96 h, read-out: IC50, growth inhibition, MALT1 inhibitors. The method, then:
as §1, §2, §3

Assay [1] addresses T1, full-length MALT1 protein (Strep-MALT1(1-824)-His) (Homo sapiens, UniProt Q9UDY8).
T1 construct: full-length MALT1 protein (Strep-MALT1(1-824)-His); Strep (N); His (C); made in house; host or cells: baculovirus-infected insect cells
The assay is described as follows: Biochemical evaluation of MALT1 protease activity (Ac-LRSR-AMC cleavage). The conditions noted are these: preincubated 50 min at RT, substrate Ac-LRSR-AMC 4 h; read-out: IC50, MALT1 enzyme. The method, then:
FIG. 21A. Chemical structure of JNJ-67690246. FIG. 21B. IC50 values for JNJ-67690246 in biochemical enzymatic and cellular cytokine secretion assays. MALT1 proteolytic IC50: purified recombinant MALT1 was preincubated for 50 min at RT with JNJ-67690246, substrate Ac-LRSR-AMC was then incubated for 4 h. MALT1 proteolytic activity was determined by measuring the increase of AMC fluorescence. […] FIG. 21C. Table for IC50 values of three different MALT1 inhibitors measured in HBL1 and OCI-Ly10 cells expressing WT and mutant BCL10. D-F. MALT1 activity measured in OCI-Ly10 GloSensor reporter cells treated with MALT1 inhibitors. […] FIG. 21G-I. NF-κB activity measured in NF-κB-RE-luciferase reporter cell lines treated with MALT1 inhibitors. […]
MALT1 protease activity was assessed in vitro using full-length MALT1 protein (Strep-MALT1(1-824)-His) purified from baculovirus-infected insect cells. […] Cleavage of AMC from the arginine residue results in an increase in coumarin fluorescence measured at 460 nm (excitation 355 nm). […] Substrate was added and the reaction was then incubated for 4 h at RT, after which fluorescence was measured.
MALT1 protease activity was assessed in vitro using full-length MALT1 protein (Strep-MALT1 (1-824)-His) purified from baculovirus-infected insect cells. […] Cleavage of AMC from the arginine residue results in an increase in coumarin fluorescence measured at 460 nm (excitation 355 nm). […]

Assay [2] has as its system IL-6 secretion by OCI-Ly3 ABC-DLBCL cells. Nature of the assay: IL-6 secretion assay using OCI-Ly3 cells (MSD). The class given is cell-based. The following applies: Homo sapiens, 24 h, read-out: IC50, IL6 secretion. How it is done:
FIG. 21A. Chemical structure of JNJ-67690246. FIG. 21B. IC50 values for JNJ-67690246 in biochemical enzymatic and cellular cytokine secretion assays. MALT1 proteolytic IC50: purified recombinant MALT1 was preincubated for 50 min at RT with JNJ-67690246, substrate Ac-LRSR-AMC was then incubated for 4 h. MALT1 proteolytic activity was determined by measuring the increase of AMC fluorescence. […] FIG. 21C. Table for IC50 values of three different MALT1 inhibitors measured in HBL1 and OCI-Ly10 cells expressing WT and mutant BCL10. D-F. MALT1 activity measured in OCI-Ly10 GloSensor reporter cells treated with MALT1 inhibitors. OCI-Ly10 MALT1 GloSensor cells were stably expressing wildtype and mutant BCL10, then treated with MALT1 inhibitors of different range (10-0.3 uM). FIG. 21G-I. NF-κB activity measured in NF-κB-RE-luciferase reporter cell lines treated with MALT1 inhibitors. HBL1 NF-κB reporter cells lines were stably expressing wildtype and mutant BCL10, and then treated with MALT1 inhibitors of different range (10-0.3 uM). NF-xB activity was performed 24 h after treatment. Error bars indicate SEM with 4 biological replicates. p<0.05; “p<0.01; “<0.001; ****p<0.0001; ns, not significant.
Secretion of the IL-6 and IL-10 cytokines by OCI-Ly3 ABC-DLBCL cells was measured using a Mesoscale assay (MSD). MALT1 inhibition results in a decrease of IL-6/10 secretion. […] Plates were read on a SECTOR imager.

T1 sequence (Q9UDY8 whole entry): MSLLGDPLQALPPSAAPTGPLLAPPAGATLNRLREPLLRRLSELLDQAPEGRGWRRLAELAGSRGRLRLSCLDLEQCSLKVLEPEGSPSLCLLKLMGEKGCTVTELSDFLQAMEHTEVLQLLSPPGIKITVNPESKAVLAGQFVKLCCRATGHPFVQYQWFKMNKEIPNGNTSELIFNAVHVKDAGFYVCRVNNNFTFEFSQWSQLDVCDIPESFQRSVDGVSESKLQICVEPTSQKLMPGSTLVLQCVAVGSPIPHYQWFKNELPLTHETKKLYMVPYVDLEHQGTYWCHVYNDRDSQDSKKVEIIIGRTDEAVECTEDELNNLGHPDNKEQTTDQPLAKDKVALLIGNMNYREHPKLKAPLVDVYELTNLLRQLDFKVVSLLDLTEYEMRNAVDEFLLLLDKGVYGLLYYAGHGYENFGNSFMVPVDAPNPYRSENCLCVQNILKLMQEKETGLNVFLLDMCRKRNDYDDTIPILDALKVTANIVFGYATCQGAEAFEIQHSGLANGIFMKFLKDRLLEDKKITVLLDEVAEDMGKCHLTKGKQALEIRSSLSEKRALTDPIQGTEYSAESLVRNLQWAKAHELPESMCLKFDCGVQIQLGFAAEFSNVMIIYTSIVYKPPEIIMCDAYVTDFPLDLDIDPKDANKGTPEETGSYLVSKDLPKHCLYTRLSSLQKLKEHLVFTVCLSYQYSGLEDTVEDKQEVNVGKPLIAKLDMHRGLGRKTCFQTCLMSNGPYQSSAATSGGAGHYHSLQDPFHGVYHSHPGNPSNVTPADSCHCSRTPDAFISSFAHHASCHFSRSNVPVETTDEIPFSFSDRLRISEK

With `Cc1nc(-n2nccn2)c(Cl)cc1NC(=O)c1cnn(-c2cccc3c(=O)[nH]ccc23)c1C(F)(F)F` [JNJ-67690246], the IC50 was 1580 ± 500 nM with HBL1^WT; 5770 ± 3020 nM with HBL1^R58Q; 150 ± 20 nM with HBL1^E140X; 320 ± 70 nM with OCI-LY10^WT; 780 ± 200 nM with OCI-LY10^R58Q; 270 ± 20 nM with OCI-LY10^E140X. For the same compound, the figures for the 50% inhibitory concentration (IC50) in assay [1] and in assay [2] were 15 nM and 60 nM, respectively.
